Data published in patent US10576151B2, “Ciclopirox for use in modulation of glucose homeostasis” (UNIVERSITY OF SOUTH CAROLINA, priority 2015, dated 2020).

Test system: p21
Experiment: p21 stimulation in islets
Type: cell-based, mice
Conditions: dependence on p53
Description: Western Blotting. The mouse islets were treated with CPX 20 μM for 24 h and lysed in RIPA buffer [50 mM Tris, pH 7.2; 150 mM NaCl; 1% sodium deoxycholate; 0.1% SDS; 1% Triton-X 100; 10 mM NaF; 1 mM Na3VO4; protease inhibitor cocktail (1:1000, Sigma, St. Louis, Mo.)] and were subjected to immunoblot analysis by standard methods. Proteins were resolved on a 10% SDS-PAGE and transferred to a nitrocellulose membrane (Bio-Rad, Hercules, Calif.). […] After incubation with enhanced chemiluminescence reagents (Santa Cruz biotechnology Inc.), membranes were analyzed using an Image J software for Windows. Islets from wt, p21-deficient, p53-deficient and CHOP-deficient mice were exposed to CPX at 20 μM for 24 h under increasing glucose amounts in the culture media, then they were let to recover for 48 h in normal glucose-containing media and their survival was assessed (FIG. 9). […]

Cc1cc(C2CCCCC2)n(O)c(=O)c1 [CPX, 6-cyclohexyl-1-hydroxy-4-methylpyridin-2(1H)-one]
p21-stimulatory activity in the islets: p53-independent
